Results from paper PMC12684325, “SiR‐XActin: A Fluorescent Probe for Imaging Actin Dynamics in Live Cells” (Angewandte Chemie (International Ed. in English), 2025).

Tested on: T1, F-actin
T1 construct: gene ACTB; F-actin filaments
Experiment: microscopy-based apparent affinity measurement for F-actin (fluorescent probe; fixed-cell staining)

SiR-XActin [compound 8]
Kd: 557 nM

SiR-actin [compound 2]
Kd: 6 nM
